# In patent publication US10774051B2, “6-membered heterocyclic derivatives and pharmaceutical composition comprising the same” (Shionogi & Co., Ltd., priority 2015, dated 2020):
# Biological target: human P2X7 receptor (Homo sapiens, UniProt Q99572, R270H/Y155H)
# Test: Evaluation of human P2X7 receptor inhibitory activity (Yo-Pro uptake, BzATP stimulation, FLIPR TETRA)
# Type: cell-based
# Conditions: 1321N1 cells stably expressing human P2X7 receptor; BzATP stimulation, Yo-Pro uptake; read-out: IC50 (antagonistic activity for the human P2X7 receptor)
# In short: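 1321N1 cells stably expressing human P2X7 (T606C/G952A SNP variant), in HBSS buffer pH 7.4-7.5 with Yo-Pro, stimulated with BzATP; compound added 8 min after agonist. Fluorescence followed for 20 min on FLIPR; max-minus-min change gave % inhibition, IC50 by logistic fit.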
row,SMILES,IC50 [µM]
1,COc1ccc(Nc2nc(=O)c(F)cn2Cc2ccc(F)c(Cl)c2)c(C)n1 [Compound I-1059],0.011
2,COc1cc(C)c(Nc2nc(=O)c(F)cn2Cc2cc(F)cc(F)c2)cc1C(C)C [Compound I-1071],0.015

# Same assay, conditions: antagonistic activity for the human P2X7 receptor; read-out: IC50
row,SMILES,IC50 [µM]
1,CCOc1ccc(Nc2nc(=O)c(F)cn2Cc2cc(F)cc(F)c2)c(C)c1 [Compound I-1047],0.01 to 0.1
2,CCOc1ccc(Nc2nc(=O)c(F)cn2Cc2ccc(F)c(F)c2)c(C)c1 [Compound I-1048],0.01 to 0.1
3,COc1ccc(Nc2nc(=O)c(F)cn2Cc2ccc(F)c(F)c2)c(C)n1 [Compound I-1049],0.01 to 0.1
4,COc1cc(Nc2nc(=O)c(F)cn2Cc2ccc(F)c(Cl)c2)c(C)cc1F [Compound I-1051],< 0.01
5,COc1cc(Nc2nc(=O)c(F)cn2Cc2ccc(F)c(F)c2)c(C)cc1F [Compound I-1052],< 0.01
6,Cc1ccc(N2CC3CCC2C3)cc1Nc1nc(=O)c(F)cn1Cc1cc(F)c(F)c(F)c1 (stereo not drawn) [Compound I-1053],0.01 to 0.1
7,Cc1cc2cc(Nc3nc(=O)c(F)cn3Cc3cc(F)c(F)c(F)c3)c(C)cc2[nH]1 [Compound I-1054],< 0.01
8,Cc1cc2cc(Nc3nc(=O)c(F)cn3Cc3ccc(F)c(Cl)c3)c(C)cc2[nH]1 [Compound I-1055],0.01 to 0.1
9,Cc1cc2cc(Nc3nc(=O)c(F)cn3Cc3ccc(F)c(F)c3)c(C)cc2[nH]1 [Compound I-1056],0.01 to 0.1
10,Cc1cc2cc(Nc3nc(=O)c(F)cn3Cc3cc(F)cc(F)c3)c(C)cc2[nH]1 [Compound I-1057],0.01 to 0.1
11,COc1cc(Nc2nc(=O)c(F)cn2Cc2cc(F)c(F)c(F)c2)c(C)cc1F [Compound I-1058],< 0.01
12,CCOc1cc(C)c(Nc2nc(=O)c(F)cn2Cc2ccc(F)c(Cl)c2)cc1F [Compound I-1060],0.01 to 0.1
13,CCOc1cc(C)c(Nc2nc(=O)c(F)cn2Cc2cc(F)cc(F)c2)cc1F [Compound I-1061],0.01 to 0.1
14,CCOc1cc(C)c(Nc2nc(=O)c(F)cn2Cc2ccc(F)c(F)c2)cc1F [Compound I-1062],0.01 to 0.1
15,Cc1cc(OC(F)F)ccc1Nc1nc(=O)c(F)cn1Cc1ccc(F)c(Cl)c1 [Compound I-1063],0.01 to 0.1
16,Cc1cc(OC(F)F)ccc1Nc1nc(=O)c(F)cn1Cc1cc(F)cc(F)c1 [Compound I-1064],0.01 to 0.1
17,Cc1cc(OC(F)F)ccc1Nc1nc(=O)c(F)cn1Cc1ccc(F)c(F)c1 [Compound I-1065],0.01 to 0.1
18,COc1ccc(C)c(Nc2nc(=O)c(F)cn2Cc2ccc(F)c(Cl)c2)c1 [Compound I-1067],< 0.01
19,COc1ccc(C)c(Nc2nc(=O)c(F)cn2Cc2ccc(F)c(F)c2)c1 [Compound I-1068],< 0.01
20,COc1ccc(C)c(Nc2nc(=O)c(F)cn2Cc2cc(F)cc(F)c2)c1 [Compound I-1069],0.01 to 0.1
21,COc1cc(C)c(Nc2nc(=O)c(F)cn2Cc2cc(F)c(F)c(F)c2)cc1C(C)C [Compound I-1070],0.01 to 0.1
22,Cc1cc2c(cc1Nc1nc(=O)c(F)cn1Cc1ccc(F)c(F)c1)CCO2 [Compound I-1072],< 0.01
23,Cc1cc2c(cc1Nc1nc(=O)c(F)cn1Cc1ccc(F)c(Cl)c1)CCO2 [Compound I-1073],< 0.01
24,O=c1nc(Nc2cccc3c2CCN3)n(Cc2cc(F)cc(F)c2)cc1F [Compound I-1074],0.01 to 0.1
25,Cc1nc2cc(Cl)c(Nc3nc(=O)c(F)cn3Cc3cc(F)cc(F)c3)cc2o1 [Compound I-1075],< 0.01
26,Cc1nc2cc(Cl)c(Nc3nc(=O)c(F)cn3Cc3ccc(F)c(F)c3)cc2o1 [Compound I-1076],< 0.01

row,SMILES,IC50 [µM]
1,Cc1nc2cc(Cl)c(Nc3nc(=O)c(F)cn3Cc3ccc(F)c(Cl)c3)cc2o1 [Compound I-1077],< 0.01
2,Cc1nc2cc(Cl)c(Nc3nc(=O)c(F)cn3Cc3cc(F)c(F)c(F)c3)cc2o1 [Compound I-1078],< 0.01
3,COC(=O)/C=C/c1ccc(C)c(Nc2nc(=O)c(OC)cn2Cc2cc(F)c(F)c(F)c2)c1 [Compound I-1079],0.01 to 0.1
4,CCOC(=O)c1cn(Cc2cc(F)c(F)c(F)c2)c(Nc2ccc(OC)cc2C)nc1=O [Compound I-1080],0.01 to 0.1
5,COc1cc(C)c(Nc2nc(=O)c(C(N)=O)cn2Cc2cc(F)c(F)c(F)c2)cc1C [Compound I-1081],0.01 to 0.1
6,Cc1ccccc1Nc1nc(=O)c(F)cn1Cc1cc(F)c(F)c(F)c1 [Compound I-1082],< 0.01
7,COc1cc(C)c(Nc2nc(=O)c(C#N)cn2Cc2cc(F)c(F)c(F)c2)cc1C [Compound I-1083],< 0.01
8,COCc1ccc(C)c(Nc2nc(=O)c(F)cn2Cc2ccc(F)c(F)c2)c1 [Compound I-1084],< 0.01
9,COCc1ccc(C)c(Nc2nc(=O)c(F)cn2Cc2ccc(F)c(Cl)c2)c1 [Compound I-1085],< 0.01
10,COCc1ccc(C)c(Nc2nc(=O)c(F)cn2Cc2cc(F)c(F)c(F)c2)c1 [Compound I-1086],< 0.01
11,COc1cc(C)c(Nc2nc(=O)c(F)cn2Cc2cc(F)c(F)c(F)c2)cc1F [Compound I-1087],< 0.01
12,Cc1nc2cc(C)c(Nc3nc(=O)c(CCO)cn3Cc3cc(F)c(F)c(F)c3)cc2s1 [Compound I-1088],0.01 to 0.1
13,Cc1cc(C)c(Nc2nc(=O)c(F)cn2Cc2ccc(F)c(Cl)c2)cc1CO [Compound I-1089],< 0.01
14,Cc1nc2[nH]ccc2cc1Nc1nc(=O)c(F)cn1Cc1ccc(F)c(F)c1 [Compound I-1090],0.01 to 0.1
15,Cc1nc2[nH]ccc2cc1Nc1nc(=O)c(F)cn1Cc1ccc(F)c(Cl)c1 [Compound I-1091],0.01 to 0.1
16,Cc1cc2[nH]ncc2cc1Nc1nc(=O)c(F)cn1Cc1cc(F)cc(F)c1 [Compound I-1092],0.01 to 0.1
17,Cc1cc2[nH]ncc2cc1Nc1nc(=O)c(F)cn1Cc1ccc(F)c(Cl)c1 [Compound I-1093],0.01 to 0.1
18,Cc1cc2[nH]ncc2cc1Nc1nc(=O)c(F)cn1Cc1cc(F)c(F)c(F)c1 [Compound I-1094],< 0.01
19,Cc1cc2[nH]ncc2cc1Nc1nc(=O)c(F)cn1Cc1ccc(F)c(F)c1 [Compound I-1095],0.01 to 0.1
20,O=c1nc(Nc2cccc3cnccc23)n(Cc2cc(F)c(F)c(F)c2)cc1F [Compound I-1096],0.01 to 0.1
21,COc1cn(Cc2cc(F)c(F)c(F)c2)c(Nc2ccccc2C)nc1=O [Compound I-1097],0.01 to 0.1
22,Cc1ccccc1Nc1nc(=O)c(C)cn1Cc1cc(F)c(F)c(F)c1 [Compound I-1098],0.01 to 0.1
23,COc1ccc(Nc2nc(=O)c(C(=O)O)cn2Cc2cc(F)c(F)c(F)c2)c(C)c1 [Compound I-1099],0.01 to 0.1
24,COc1ccc(Nc2nc(=O)c(C(N)=O)cn2Cc2cc(F)c(F)c(F)c2)c(C)c1 [Compound I-1100],0.01 to 0.1
25,COc1cc(C)c(Nc2nc(=O)c(F)cn2Cc2cc(F)cc(F)c2)cc1F [Compound I-1101],0.01 to 0.1
26,Cc1cc(OC(F)(F)F)ccc1Nc1nc(=O)c(F)cn1Cc1cc(F)cc(F)c1 [Compound I-1102],0.01 to 0.1

row,SMILES,IC50 [µM]
1,Cc1cc(OC(F)(F)F)ccc1Nc1nc(=O)c(F)cn1Cc1cc(F)c(F)c(F)c1 [Compound I-1103],0.01 to 0.1
2,COc1ccc(Nc2nc(=O)c(CCO)cn2Cc2cc(F)c(F)c(F)c2)c(C)c1 [Compound I-1104],0.01 to 0.1
3,O=c1nc(Nc2cccc3c(O)cccc23)n(Cc2cc(F)c(F)c(F)c2)cc1F [Compound I-1105],< 0.01
4,CN1CCc2c(cccc2Nc2nc(=O)c(F)cn2Cc2cc(F)c(F)c(F)c2)C1 [Compound I-1107],0.01 to 0.1
5,CCOC(=O)c1cn(Cc2ccc(F)c(F)c2)c(Nc2cc(C)c(OC)cc2C)nc1=O [Compound I-1109],< 0.01
6,Cc1cc(C)c(Nc2nc(=O)c(F)cn2Cc2cc(F)c(F)c(F)c2)cc1CO [Compound I-1110],< 0.01
7,Cc1cc(C)c(Nc2nc(=O)c(F)cn2Cc2cc(F)cc(F)c2)cc1CO [Compound I-1111],< 0.01
8,COc1ccc(Nc2nc(=O)c(C#N)cn2Cc2cc(F)c(F)c(F)c2)c(C)c1 [Compound I-1112],0.01 to 0.1
9,Cc1cc(C)c(Nc2nc(=O)c(Br)cn2Cc2cc(F)cc(F)c2)cc1C [Compound I-1113],< 0.01
10,O=c1nc(Nc2cccc3c(O)cccc23)n(Cc2cc(F)cc(F)c2)cc1F [Compound I-1114],< 0.01
11,O=c1nc(Nc2cccc3c(O)cccc23)n(Cc2ccc(F)c(F)c2)cc1F [Compound I-1115],< 0.01
12,O=c1nc(Nc2cccc3c(O)cccc23)n(Cc2ccc(F)c(Cl)c2)cc1F [Compound I-1116],< 0.01
13,COc1cc(Nc2nc(=O)c(F)cn2Cc2cc(F)c(F)c(F)c2)c(C)nc1F [Compound I-1117],0.01 to 0.1
14,COc1cc(Nc2nc(=O)c(F)cn2Cc2cc(F)cc(F)c2)c(C)nc1F [Compound I-1118],0.1 to 0.5
15,Cc1c(Nc2nc(=O)c(F)cn2Cc2cc(F)cc(F)c2)ccc2[nH]ccc12 [Compound I-1119],< 0.01
16,Cc1c(Nc2nc(=O)c(F)cn2Cc2cc(F)c(F)c(F)c2)ccc2[nH]ccc12 [Compound I-1120],< 0.01
17,CCOC(=O)c1cn(Cc2cc(F)c(F)c(F)c2)c(Nc2ccc(OC(F)F)cc2C)nc1=O [Compound I-1121],0.1 to 0.5
18,CCOC(=O)c1cn(Cc2cc(F)c(F)c(F)c2)c(Nc2cc(OC)c(F)cc2C)nc1=O [Compound I-1122],0.01 to 0.1
19,COc1ccc(C)c(Nc2nc(=O)c(C#N)cn2Cc2cc(F)cc(F)c2)c1 [Compound I-1123],0.1 to 0.5
20,COCc1cn(Cc2cc(F)c(F)c(F)c2)c(Nc2ccc(OC(F)F)cc2C)nc1=O [Compound I-1124],0.01 to 0.1
21,COCc1cn(Cc2cc(F)c(F)c(F)c2)c(Nc2cc(OCCO)ccc2C)nc1=O [Compound I-1125],0.01 to 0.1
22,COCc1cn(Cc2cc(F)c(F)c(F)c2)c(Nc2cc3c(cc2C)COC3)nc1=O [Compound I-1126],0.01 to 0.1
23,Cc1cc2c(cc1Nc1nc(=O)c(CCO)cn1Cc1cc(F)c(F)c(F)c1)COC2 [Compound I-1127],0.01 to 0.1
24,COc1ccc(C)c(Nc2nc(=O)c(C(=O)O)cn2Cc2cc(F)c(F)c(F)c2)c1 [Compound I-1128],0.01 to 0.1
